Reference: patent publication US12318452B2, “Degraders of WEE1 kinase” (DANA-FARBER CANCER INSTITUTE, INC., priority 2018, dated 2025)

Key:
Wee1 [1] = biological target: T1, Wee1 (Homo sapiens, UniProt P30291); assay: LanthaScreen FRET-based biochemical binding assay for Wee1; conditions: LanthaScreen Binding activity assay; average of two replicates ± SD
Experimental: (§1) LanthaScreen™ assays were conducted for Wee1 in a 10-point dose response as performed in the commercial assay service by Life Technologies™. Z′-LYTE™ assays were conducted for PLK1 as performed in the commercial assay service by Life Technologies™ in a 10-point dose response using Km ATP concentrations.

pCDK1 Y15 = assay: Downstream signalling immunoblot in MOLT4 cells (pCDK1 Y15, cleaved PARP, γH2Ax); assay type: cell-based
Experimental: (§2) Whole cell lysates for immunoblotting were prepared by pelleting cells from each cell line at 4° C. (300 g) for 5 minutes. The resulting cell pellets were washed 1× with ice-cold PBS and then resuspended in RIPA lysis buffer (Sigma, cat #R0278) supplemented with protease and phosphatase inhibitor tablets (Roche cat #4906845001). Lysates were clarified at 14,000 rpm for 15 minutes at 4° C. prior to quantification by BCA assay (Pierce™, cat #23225). Whole cell lysates were loaded into Bolt 4-12% Bis-Tris Gels (Thermo Fisher, cat #NW04120BOX) and separated by electrophoreses at 95 V for 1.5 hours. The gels were transferred to a nitrocellulose membrane using the iBlot® Gel Transfer at P3 for 7 minutes (Thermo Fisher, cat #IB23001) and then blocked for 1 hour at room temperature in Odyssey® blocking buffer (LICOR® Biosciences, cat #927-50010). Membranes were probed using antibodies against the relevant proteins at 4° C. overnight in 20% Odyssey® Blocking Buffer in 1×TBST. Membranes were then washed three times with 1×TBST (at least 5 minutes per wash) followed by incubation with the IRDye® goat anti-mouse (LICOR®, cat #926-32210) or goat anti-rabbit (LICOR®, cat #926-32211) secondary antibody (diluted 1:10,000) in 20% Odyssey® Blocking Buffer in 1×TBST for 1 hour at room temperature. After three washes with 1×TBST (at least 5 minutes per wash), the immunoblots were visualized using the ODYSSEY® Infrared Imaging System (LICOR®).
(§3) MOLT4 cells were plated at 1.5 million cells per well in a 6-well plate, with 3 mL of media per well. Cells were then immediately treated with the indicated concentration of the indicated compound and incubated for the indicated amount of time. Cells were collected by transferring each well to a 15 mL conical, centrifuging (1000 rpm for 3 min), then washing the cell pellet 2× with cold PBS. Each cell pellet was then lysed in 100 μL of RIPA lysis buffer (+protease/phosphatase inhibitors). Samples were normalized and prepped in 4×LDS+10% β-mercaptoethanol and boiled for 5 min at 95° C. Lysates were probed for specified proteins by western blotting using the Bolt® system (Life Technologies™)
The effects of targeted Wee1 degradation on the cell cycle were evaluated. Wee1 is required for the temporal regulation of CDK1 at the G2/M cell-cycle checkpoint, and Wee1 loss therefore […] via activation of CDK1. Following loss of Wee1 activity, cells are expected to enter mitosis before completing DNA repair, ultimately resulting in excessive unrepaired DNA damage, mitotic catastrophe, and apoptosis (Beck et al., Mol. Cell Biol. 32:4226-4236 (2012)).

[2] = test system: 300 suspension and hematopoietic cancer cell lines; assay: PRISM pooled cytotoxicity assay; assay type: cell-based
OVCAR8 cells = assay: Synergy experiment, CellTiter-Glo co-treatment for 72 hours; assay type: cell-based; conditions: 72-hr co-treatment with Olaparib
Wee1 [3] = biological target: T1, Wee1; assay: Wee1 degradation immunoblot in OVCAR8 cells; assay type: cell-based; design: endogenous in cells; conditions: 5 hours
Experimental: as §2, with “Membranes were then washed three times with 1×TBST (at least 5 minutes per wash) followed by incubation with the IRDye® goat anti-mouse (LICOR®, cat #926-32210) or goat anti-rabbit (LICOR®, cat #926-32211) secondary antibody (diluted 1:10,000) in 20% Odyssey® Blocking Buffer in 1×TBST for 1 hour at room temperature. After three washes with 1×TBST (at least 5 minutes per wash), the immunoblots were visualized using the ODYSSEY® Infrared Imaging System (LICOR®).” left out
Compound 13 was profiled in three different ovarian cancer cell lines OVCAR8, COV362, and Kuramochi (FIG. 6C-FIG. 6E). […] After confirming that Compound 13 degraded Wee1 in OVCAR8 cells, with maximal degradation observed at a 100 nM treatment (FIG. 11A), the efficacy of compound 13 and Olaparib combination treatments were evaluated.

PLK1 = PLK1 (Homo sapiens, UniProt P53350); assay: Z′-LYTE kinase activity assay for PLK1; assay type: biochemical; design: purchased Life Technologies (Invitrogen) commercial assay service; conditions: Km ATP, average of two replicates ± SD
Chain of PLK1 (P53350 whole entry): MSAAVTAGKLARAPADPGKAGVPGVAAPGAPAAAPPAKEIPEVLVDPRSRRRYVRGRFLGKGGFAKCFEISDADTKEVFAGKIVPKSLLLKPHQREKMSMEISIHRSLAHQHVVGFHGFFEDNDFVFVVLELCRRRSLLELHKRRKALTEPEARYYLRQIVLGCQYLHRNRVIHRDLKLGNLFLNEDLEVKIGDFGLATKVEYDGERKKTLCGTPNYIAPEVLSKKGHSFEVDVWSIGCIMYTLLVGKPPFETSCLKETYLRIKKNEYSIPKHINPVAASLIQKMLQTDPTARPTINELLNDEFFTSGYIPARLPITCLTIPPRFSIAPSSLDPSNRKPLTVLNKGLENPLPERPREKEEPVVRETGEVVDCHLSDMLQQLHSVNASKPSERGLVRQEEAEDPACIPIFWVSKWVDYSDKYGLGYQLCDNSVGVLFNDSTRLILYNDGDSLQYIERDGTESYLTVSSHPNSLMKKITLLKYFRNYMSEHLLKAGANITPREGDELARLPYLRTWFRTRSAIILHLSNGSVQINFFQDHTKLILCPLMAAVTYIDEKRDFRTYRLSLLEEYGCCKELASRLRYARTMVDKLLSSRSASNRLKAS
Experimental: as §1
The selectivity of Wee1 degradation was then assessed by performing multiplexed mass spectrometry (MS)-based proteomics in MOLT4 cells treated with 100 nM of compound 13 for 2 hours (Donovan et al., Elife 7:e38430 (2018)).

Wee1 [4] = biological target: T1, Wee1; assay: Wee1 degradation immunoblot in MOLT4 cells, 5-hr dose response and time course; assay type: cell-based; design: endogenous in cells; host or cells: MOLT4 (wild type; CRBN-/- as control); conditions: for Wee1 degradation: 5-hr exposure, 100 nM-10 μM
Experimental: as §2, §3
To confirm that compound 13-mediated Wee1 degradation is CRBN dependent (FIG. 1D), Wee1 degradation profiles in parental versus CRBN^−/− MOLT4 cells were compared. In parental MOLT4 cells, compound 13 induced potent Wee1 degradation after 5 hours, with maximal degradation observed at 100 nM and a “hook effect” apparent at the top concentration of 10 μM, where compound 13:CRBN and compound 13-Wee1 binary complexes inhibit the formation of a productive ternary complex (Toure and Crews, Angew. Chem. 55:1966-1973 (2016)).
To evaluate the kinetics of Wee1 degradation, a time course study was performed in MOLT4 cells using 100 nM compound 13. Degradation occurred rapidly, with over 50% degradation achieved within 30 min, and complete degradation reached by 3 hr (FIG. 4C).

[5] = 100 nM, MOLT4 cells, time course

T1 sequence (P30291 whole entry): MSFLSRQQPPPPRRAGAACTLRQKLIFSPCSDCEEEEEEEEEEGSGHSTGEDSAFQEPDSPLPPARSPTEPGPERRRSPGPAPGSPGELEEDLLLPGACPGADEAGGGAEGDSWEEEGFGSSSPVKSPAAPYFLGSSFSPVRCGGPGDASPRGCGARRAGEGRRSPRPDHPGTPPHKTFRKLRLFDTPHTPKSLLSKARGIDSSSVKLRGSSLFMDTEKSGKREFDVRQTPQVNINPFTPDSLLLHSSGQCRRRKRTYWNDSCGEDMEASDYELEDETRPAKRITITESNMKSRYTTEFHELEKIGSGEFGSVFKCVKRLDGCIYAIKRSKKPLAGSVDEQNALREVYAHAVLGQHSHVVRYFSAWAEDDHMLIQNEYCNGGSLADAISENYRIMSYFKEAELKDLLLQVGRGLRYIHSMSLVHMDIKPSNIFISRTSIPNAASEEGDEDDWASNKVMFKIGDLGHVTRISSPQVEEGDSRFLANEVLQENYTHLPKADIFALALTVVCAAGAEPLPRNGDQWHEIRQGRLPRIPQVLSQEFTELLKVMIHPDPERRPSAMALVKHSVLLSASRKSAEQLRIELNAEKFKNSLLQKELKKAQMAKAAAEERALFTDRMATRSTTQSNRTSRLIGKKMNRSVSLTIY

C=CCn1c(=O)c2cnc(Nc3ccc(N4CCN(CCCNc5cccc6c5C(=O)N(C5CCC(=O)NC5=O)C6=O)CC4)cc3)nc2n1-c1cccc(C(C)(C)O)n1 (stereo not drawn) [Compound 13, 4-((3-(4-(4-((2-allyl-1-(6-(2-hydroxypropan-2-yl)pyridin-2-yl)-3-oxo-2,3-dihydro-1H-pyrazolo[3,4-d]pyrimidin-6-yl)amino)phenyl)piperazin-1-yl)propyl)amino)-2-(2,6-dioxopiperidin-3-yl)isoindoline-1,3-dione]
IC50 (Wee1 [1]): 3.58 ± 0.36 nM
Dose from which pCDK1 Y15 is decreased (pCDK1 Y15; CRBN−/− MOLT4 cells): 1 μM
Fold lower doses than AZD1775 for the same downstream effects (pCDK1 Y15; MOLT4 cells): up to 10 fold
Dose from which pCDK1 Y15 is reduced (pCDK1 Y15; parental MOLT4 cells): 100 nM
IC50 ([2]; almost all of the lines tested, data not shown, read-out: IC50 values in PRISM panel): < 1000 nM
Synergy with Olaparib (OVCAR8 cells): synergized with Olaparib
Concentration giving maximal Wee1 degradation (Wee1 [3]): 100 nM
IC50 (PLK1): 102 nM
Time to complete Wee1 degradation (Wee1 [4]; 100 nM, MOLT4 cells): ≤ 3 h
Wee1 degradation achieved within 30 min (Wee1 [4]; [5]): over 50%
Effect on Wee1 abundance in CRBN−/− cells (Wee1 [4]; CRBN−/− MOLT4 cells, 5 hours): no effect on Wee1 abundance
Wee1 degradation (Wee1 [4]; MOLT4 cells): degraded Wee1
Concentration giving maximal (sufficient) Wee1 degradation (Wee1 [4]; MOLT4 cells, 5-hr treatment): 100 nM
Concentration at which hook effect is apparent (Wee1 [4]; parental MOLT4 cells, 5 hours): 10 µM
Duration of sustained loss of Wee1 (Wee1 [4]; single 100 nM treatment, MOLT4 cells): at least 48 hrs

C=CCn1c(=O)c2cnc(Nc3ccc(N4CCN(CCCNc5cccc6c5C(=O)N(C5CCC(=O)N(C)C5=O)C6=O)CC4)cc3)nc2n1-c1cccc(C(C)(C)O)n1 (stereo not drawn) [Compound 20, 4-((3-(4-(4-((2-allyl-1-(6-(2-hydroxypropan-2-yl)pyridin-2-yl)-3-oxo-2,3-dihydro-1H-pyrazolo[3,4-d]pyrimidin-6-yl)amino)phenyl)piperazin-1-yl)propyl)amino)-2-(1-methyl-2,6-dioxopiperidin-3-yl)isoindoline-1,3-dione]
IC50 (Wee1 [1]): 7.38 ± 0.47 nM
Potency in PRISM panel relative to compound 13 [2]: uniformly less potent
Synergy with Olaparib (OVCAR8 cells): less synergistic activity
IC50 (PLK1): 43 ± 4 nM
Effect on Wee1 protein levels over time (Wee1 [4]; [5]): no effect on Wee1 protein levels
Wee1 degradation (Wee1 [4]; MOLT4 cells): did not degrade Wee1
